Measured values published in patent publication US11571421B2, “GABAA positive allosteric modulator compounds for treatment of itch and/or dermatitis” (NeuroCycle Therapeutics, Inc., priority 2018, dated 2023).

Columns and labels:
Assay type in all cases: in vivo
[1] = tested on: Histamine-Induced Itch Model in Male C57BL/6 Mice; experiment: Histamine-Induced Itch Model (Example 3); conditions: oral gavage 90 min before 100 μg histamine cheek injection; 1, 3, 10, 30 and 100 mg/kg
Procedure: PF-06372865 (an alpha 2, alpha 3, and alpha 5 agonist; and an alpha 1 antagonist) is assessed for its antipruritic effects against a cheek injection of 100 μg histamine in wild-type C57BL/6 mice. The mice are dosed with PF-06372865 by oral gavage ninety (90) minutes before histamine injection. Doses of PF-06372865 are vehicle, 1, 3, 10, 30 and 100 mg/kg.

[2] = tested on: Dry Itch Model in Male C57BL/6 Mice; experiment: Dry skin itch model (Example 8); conditions: 10 mg/kg intraperitoneal; 15 to 210 min after injection
Procedure: In order to assess the antipruritic effect of PF-06372865 in another clinically relevant disease, the dry skin model of dermatitis is used. In the dry skin model, mice are treated with a mixture of acetone and diethylether (1:1) on the shaved nape of the neck for 15 s, followed by distilled water for 30 sec, twice daily for 10 days. On the day of the experiment, mice received intraperitoneal injection of vehicle or PF-06372865 (10 mg/kg). The number of scratching bouts directed to the nape of the neck between 15 to 210 min after injection are recorded.

[3] = tested on: Oxazolone-induced Itch Model in Male C57BL/6 Mice; experiment: Oxazolone-induced dermatitis model of chronic itch (Example 7)
Procedure: In order to assess: the antipruritic effect of PF-06372865 in a clinically relevant disease, the development of a tolerance towards the antipruritic effect of PF-06372865, and the effect of PF-06372865 in reducing dermatitis after prolonged treatment, the oxazolone-induced dermatitis model of chronic itch is used. To this end, wild-type C57Bl/6 mice are treated with 100 μL of 10% oxazolone (4-Ethoxymethylene-2-phenyl-2-oxazolin-5-one) dissolved in acetone/olive oil (4:1) on the nape of the neck. From day 7 to day 31 these mice are treated every other day with 100 μL 1% oxazolone to induce and maintain dermatitis and chronic itch. From day 17 onward, mice are treated with intraperitoneal injection of vehicle or 10 mg/kg PF-06372865 for thirteen consecutive days. On day 31, mice are given either intraperitoneal injection of vehicle or PF-06372865 (10 mg/kg). The number of scratching bouts directed to the nape of the neck between 15 to 210 min after injection are recorded. […] This is independent of the treatment they received from day 7 to day 30. […] To quantify the severity of skin lesions, a dermatitis score are determined. Hemorrhage/erythema, dryness/scaring and hyperplasia (Yamada et. al. Exp Dermatol. 2016, 25, 611-617) are scored as 0 (none), 1 (mild), 2 (moderate) or 3 (severe) once per day resulting in a score between 0 and 9. […]

[4] = tested on: Non-Histamine-Induced Itch Model in Male C57BL/6 Mice; experiment: Non-Histamine (chloroquine)-Induced Itch Model (Example 5); conditions: oral gavage 90 min before chloroquine; 1, 3, 10, 30 and 100 mg/kg
Procedure: The mice are dosed with PF-06372865 by oral gavage ninety (90) minutes before chloroquine injection. Doses of PF-06372865 are 1, 3, 10, 30 and 100 mg/kg.

Male C57BL/6 Mice = experiment: Sedation, behavioral change and clinical signs observed in Example 1
Procedure: Animals were dosed per oral with respective treatment group using a dose volume of 10 ml/kg. Times of dosing were recorded. Immediately after compound treatment, animals were kept in an empty transparent chamber (23 cm length×17 cm width) for acclimatization and observation.
Ninety (90) minutes post compound dosing, 50-μl of chloroquine phosphate solution (a 200-μg dose) was injected intracutaneously into the animal's right cheek. Animals were returned to the same chamber for observation. Animals were observed by an observer blind to the treatment group for a period of 30 minutes post chloroquine injection. Total number of bouts of scratching directed at the ipsilateral cheek were recorded for 30 minutes.

[5] = tested on: Bile Acid Itch Model in Male C57BL/6 Mice; experiment: Bile acid (deoxycholic acid) induced itch model (Example 9); conditions: 10 mg/kg oral gavage 90 min before deoxycholic acid (25 μg)
Procedure: In order to assess the antipruritic effect of PF-06372865 in another clinically relevant disease, the bile acid induced itch model is used. In the bile acid induced itch model, the fur at the base of the neck is shaved, and mice are placed in individual cylinders on a glass shelf. Mice are acclimatized to the experimental room, restraint apparatus and investigators for 2-hour periods on 2 successive days before experiments. The mice are dosed with 10 mg/kg PF-06372865 by oral gavage ninety (90) minutes before they are injected with deoxycholic acid. Deoxycholic acid (25 μg in DMSO), is administered by intradermal injection at the nape of the neck. Scratching behavior is quantified by 2 observers unaware of tested agents. A scratch is defined as lifting the hind limb to the injection site and then a placing of the paw on the floor, regardless of the number of strokes. If counts differed by greater than 5 scratches over a 30-minute period, both observers reevaluate the records. The number of scratching bouts directed to the nape of the neck between 15 to 210 min after injection are recorded.

CCn1cnc2c(-c3ccc(F)c(-c4ccc(S(=O)(=O)CC)cc4OC)c3)cnnc21 [PF-06372865]
scratching bouts, histaminergic itch [1]: dose-dependent reduction of scratching bouts | scratching bouts compared to vehicle injection [2]: significant reduction in scratching bouts | skin lesions (dermatitis score) ([3]; 10 mg/kg intraperitoneal for thirteen consecutive days): significant reduction in skin lesions | scratching bouts compared to vehicle injection ([3]; 10 mg/kg intraperitoneal on day 31, 15 to 210 min after injection): significant reduction in scratching bouts | scratching bouts, chloroquine-induced itch [4]: dose-dependent reduction of scratching bouts | sedation (Male C57BL/6 Mice; 3 mg/kg PO): Minimal sedation | other behavioral change or clinical sign (Male C57BL/6 Mice; any of the PF-06372865 treatment groups (0.3-30 mg/kg PO)): No other behavioral change or clinical sign were observed | sedation (Male C57BL/6 Mice; at 10 mg/kg and 30 mg/kg PO): Dose dependent increase in sedation | scratching bouts compared to vehicle injection [5]: significant reduction in scratching bouts
